Assay results: patent publication US3956292A, “7-(α-FUROYLUREIDOARYL AND CYCLOHEXADIENYLACETAMIDO) CEPHALOSPORIN ANTIBIOTICS” (Eli Lilly and Company, priority 1975, dated 1976)
Converted amounts (≈) assume the structure as drawn. Read-outs that look alike come from different tables or passages of the source.

Legend:
Type in all cases: cell-based
[1] = system: Resistant Staphylococcus V-84; assay: Antibiotic activity vs. penicillin resistant Staphylococcus clinical isolates, MIC by gradient plate method
Protocol: (§1) The antibiotic activity of the compounds of the invention is illustrated by the in vitro data presented in the following Tables I and II for two of the preferred compounds. In the tables, the minimum inhibitory concentrations (MIC) of the test compounds versus the indicated gram-positive and gram-negative microorganisms is presented. The MIC values were determined by the gradient plate method which is essentially the method described by Bryson and Szybalski, Science, 116, 45-46 (1952).
(§2) Table II lists the inhibitory activity in terms of MIC values against clinical isolates of penicillin resistant Staphylococcus microorganisms both in the presence of and in the absence of serum.

[2] = system: Resistant Staphylococcus V-41; assay: as above
Protocol: as §1, §2

[3] = system: Resistant Staphylococcus X-400; assay: as above
Protocol: as §1, §2

[4] = system: Resistant Staphylococcus V-32; assay: as above
Protocol: as §1, §2

[5] = system: Resistant Staphylococcus X1.1; assay: as above
Protocol: as §1, §2

[6] = system: Pseudomonas aeruginosa; assay: Antibiotic activity in vitro, MIC by gradient plate method
Protocol: as §1, §2

[7] = system: Aerobacter aerogenes; assay: as above; conditions: Klebsiella aerogenes
Protocol: as §1, §2

[8] = system: Shigella sp.; assay: as above
Protocol: as §1, §2

[9] = system: Escherichia coli; assay: as above
Protocol: as §1, §2

[10] = system: Serratia marcescens; assay: as above
Protocol: as §1, §2

[11] = system: Klebsiella pneumoniae; assay: as above
Protocol: as §1, §2

[12] = system: Salmonella heidelberg; assay: as above; conditions: Salmonella enterica
Protocol: as §1, §2

[13] = Staphylococcus, absence of serum (NS), read-out: MIC

Row | SMILES | MIC ([1]; absence of serum (NS)) | MIC ([1]; presence of serum (S)) | MIC ([2]; absence of serum (NS)) | MIC ([2]; presence of serum (S)) | MIC [3, 13] | MIC ([3]; presence of serum (S)) | MIC ([4]; absence of serum (NS)) | MIC ([4]; presence of serum (S)) | MIC ([5]; absence of serum (NS)) | MIC ([5]; presence of serum (S)) | MIC [6] | MIC [7] | MIC [8] | MIC [9] | MIC [10] | MIC [11] | MIC [12]
1 | Cn1nnnc1SCC1=C(C(=O)O)N2C(=O)C(NC(=O)C(NC(=O)NC(=O)c3ccco3)c3ccccc3)C2SC1 (stereo not drawn) [Test Compound A, 7-[α-(3-α-furoyl-1-ureido)-α-phenylacetamido]-3-(1-methyl-1H-tetrazole-5-ylthiomethyl)-3-cephem-4-carboxylic acid] | 0.4 µg/mL (≈ 0.668 µM) | 1 µg/mL | 3 µg/mL (≈ 5.01 µM) | 8 µg/mL | > 20 µg/mL | > 20 µg/mL | 4.5 µg/mL (≈ 7.52 µM) | 8 µg/mL | 0.4 µg/mL (≈ 0.668 µM) | 1 µg/mL | 12.3 µg/mL (≈ 20.5 µM) | 7.5 µg/mL (≈ 12.5 µM) | 5.5 µg/mL (≈ 9.19 µM) | 7 µg/mL (≈ 11.7 µM) | 19.5 µg/mL (≈ 32.6 µM) | 5 µg/mL (≈ 8.35 µM) | 6.8 µg/mL (≈ 11.4 µM)
2 | Cn1nnnc1SCC1=C(C(=O)O)N2C(=O)C(NC(=O)C(NC(=O)NC(=O)c3ccco3)c3ccc(O)cc3)C2SC1 (stereo not drawn) [Test Compound B, 7-[α-(3-α-furoyl-1-ureido)-α-(4-hydroxyphenyl)acetamido]-3-(1-methyl-1H-tetrazole-5-ylthiomethyl)-3-cephem-4-carboxylic acid] | 1 µg/mL (≈ 1.63 µM) | 1 µg/mL | 5 µg/mL (≈ 8.14 µM) | > 20 µg/mL | > 20 µg/mL | > 20 µg/mL | 13.7 µg/mL (≈ 22.3 µM) | > 20 µg/mL | 1 µg/mL (≈ 1.63 µM) | 1 µg/mL | 10.7 µg/mL (≈ 17.4 µM) | 6.5 µg/mL (≈ 10.6 µM) | 5.5 µg/mL (≈ 8.95 µM) | 5.8 µg/mL (≈ 9.44 µM) | 14.5 µg/mL (≈ 23.6 µM) | 6.3 µg/mL (≈ 10.3 µM) | 5.8 µg/mL (≈ 9.44 µM)
